In PubChem BioAssay (NCI):
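Assay format: 96-well plates, 48-hour exposure. TGI marks complete inhibition of growth.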

Columns and labels:
Assay in all cases: inhibition of tumour cell growth, NCI panel, 48 h
[1] = system: 786-0 renal
[2] = system: A549 NSCLC
[3] = system: ACHN renal
[4] = system: BT-549 breast
[5] = system: CAKI-1 renal
[6] = system: CCRF-CEM leukemia
[7] = system: COLO 205 colon
[8] = system: DU-145 prostate
[9] = system: EKVX NSCLC
[10] = system: HCC-2998 colon
[11] = system: HCT-116 colon
[12] = system: HCT-15 colon
[13] = system: HL-60(TB) leukemia
[14] = system: HOP-62 NSCLC
[15] = system: HOP-92 NSCLC
[16] = system: HS 578T breast
[17] = system: HT29 colon
[18] = system: IGROV1 ovarian
[19] = system: K-562 leukemia
[20] = system: KM12 colon
[21] = system: LOX IMVI melanoma
[22] = system: M14 melanoma
[23] = system: MALME-3M melanoma
[24] = system: MCF7 breast
[25] = system: MDA-MB-231 breast
[26] = system: MDA-MB-435
[27] = system: MOLT-4 leukemia
[28] = system: NCI-H226 lung
[29] = system: NCI-H23 lung
[30] = system: NCI-H460 lung
[31] = system: NCI/ADR-RES ovarian
[32] = system: OVCAR-3 ovarian
[33] = system: OVCAR-4 ovarian
[34] = system: OVCAR-5 ovarian
[35] = system: OVCAR-8 ovarian
[36] = system: PC-3 prostate
[37] = system: RPMI-8226 leukemia
[38] = system: RXF 393 renal
[39] = system: SF-268 CNS
[40] = system: SF-295 CNS
[41] = system: SF-539 CNS
[42] = system: SK-MEL-2 melanoma
[43] = system: SK-MEL-28 melanoma
[44] = system: SK-MEL-5 melanoma
[45] = system: SK-OV-3 ovarian
[46] = system: SNB-19 CNS
[47] = system: SNB-75 CNS
[48] = system: SR leukemia
[49] = system: SW-620 colon
[50] = system: T-47D breast
[51] = system: TK-10 renal
[52] = system: U251 CNS
[53] = system: UACC-257 melanoma
[54] = system: UACC-62 melanoma
[55] = system: UO-31 renal
[56] = system: A498 renal
[57] = system: NCI-H522 lung
[58] = system: SN12C renal

`c1cncc(C2(c3cc4ccccc4[nH]3)COCO2)c1` (stereo not given) gave a TGI [1] of over 100 µM, a TGI [2] of over 100 µM and a TGI [3] of over 100 µM. The TGI [4] was over 100 µM, the TGI [5] was over 100 µM and the TGI [6] was 56.6 µM. For the same molecule, the TGI [7] was over 100 µM, the TGI [8] was over 100 µM and the TGI [9] was over 100 µM. It also gave a TGI [10] of over 100 µM, a TGI [11] of over 100 µM and a TGI [12] of over 100 µM. The TGI [13] was over 100 µM, the TGI [14] was over 100 µM and the TGI [15] was over 100 µM. The TGI [16] was over 100 µM, the TGI [17] was over 100 µM and the TGI [18] was over 100 µM. The TGI [19] was over 100 µM, the TGI [20] was over 100 µM and the TGI [21] was over 100 µM. For the same molecule, the TGI [22] was over 100 µM, the TGI [23] was over 100 µM and the TGI [24] was over 100 µM. It also gave a TGI [25] of over 100 µM, a TGI [26] of over 100 µM and a TGI [27] of over 100 µM. For the same molecule, the TGI [28] was over 100 µM, the TGI [29] was over 100 µM and the TGI [30] was over 100 µM. It also gave a TGI [31] of over 100 µM, a TGI [32] of over 100 µM and a TGI [33] of over 100 µM. It also gave a TGI [34] of over 100 µM, a TGI [35] of over 100 µM and a TGI [36] of over 100 µM. The TGI [37] was over 100 µM, the TGI [38] was over 100 µM and the TGI [39] was over 100 µM. The TGI [40] was over 100 µM, the TGI [41] was over 100 µM and the TGI [42] was over 100 µM. The TGI [43] was over 100 µM, the TGI [44] was over 100 µM and the TGI [45] was over 100 µM. It also gave a TGI [46] of over 100 µM, a TGI [47] of over 100 µM and a TGI [48] of over 100 µM. It also gave a TGI [49] of over 100 µM, a TGI [50] of over 100 µM and a TGI [51] of over 100 µM. It also gave a TGI [52] of over 100 µM, a TGI [53] of over 100 µM and a TGI [54] of over 100 µM. It also gave a TGI [55] of over 100 µM.

Work on `O=C(O)c1cc(CC2Cc3cc4c(cc3C2=O)CCC4)cc2c1CCC2` (stereo not given) yielded a TGI [1] of over 100 µM, a TGI [56] of over 100 µM and a TGI [2] of over 100 µM. For the same molecule, the TGI [3] was over 100 µM, the TGI [4] was over 100 µM and the TGI [5] was over 100 µM. The TGI [6] was over 100 µM, the TGI [7] was over 100 µM and the TGI [8] was over 100 µM. For the same molecule, the TGI [9] was over 100 µM, the TGI [10] was over 100 µM and the TGI [11] was over 100 µM. For the same molecule, the TGI [12] was over 100 µM, the TGI [13] was over 100 µM and the TGI [14] was over 100 µM. It also gave a TGI [16] of over 100 µM, a TGI [17] of over 100 µM and a TGI [18] of over 100 µM. It also gave a TGI [19] of over 100 µM, a TGI [20] of over 100 µM and a TGI [21] of over 100 µM. It also gave a TGI [22] of over 100 µM, a TGI [23] of over 100 µM and a TGI [24] of over 100 µM. It also gave a TGI [25] of over 100 µM, a TGI [26] of over 100 µM and a TGI [27] of over 100 µM. It also gave a TGI [28] of over 100 µM, a TGI [29] of over 100 µM and a TGI [30] of over 100 µM. It also gave a TGI [57] of over 100 µM, a TGI [31] of over 100 µM and a TGI [32] of over 100 µM. It also gave a TGI [33] of over 100 µM, a TGI [34] of over 100 µM and a TGI [35] of over 100 µM. It also gave a TGI [36] of over 100 µM, a TGI [37] of over 100 µM and a TGI [39] of over 100 µM. For the same molecule, the TGI [40] was over 100 µM, the TGI [41] was over 100 µM and the TGI [42] was over 100 µM. For the same molecule, the TGI [43] was over 100 µM, the TGI [45] was over 100 µM and the TGI [58] was over 100 µM. For the same molecule, the TGI [46] was over 100 µM, the TGI [47] was over 100 µM and the TGI [48] was over 100 µM. It also gave a TGI [49] of over 100 µM, a TGI [50] of over 100 µM and a TGI [51] of over 100 µM. It also gave a TGI [52] of over 100 µM, a TGI [53] of over 100 µM and a TGI [54] of over 100 µM. It also gave a TGI [55] of over 100 µM.
